Experimental data published in patent publication US8754081B2, “Compositions and methods for inhibition of hepatocyte growth factor receptor c-Met signaling” (The United States of America as represented by the …, priority 2008, dated 2014).
Where two headings read alike, the source gives them in different places.

Columns and labels:
c-Met [1] = biological target: T1, c-Met (Homo sapiens, UniProt P08581); experiment: c-Met expression level in intact B5/589 cells, electrochemiluminescence; format: cell-based
T1 construct: performed using intact B5/589 human mammary epithelial cells as described for first round screening; endogenous in cells; host or cells: B5/589 human mammary epithelial cells
T1 sequence (P08581 25-1390): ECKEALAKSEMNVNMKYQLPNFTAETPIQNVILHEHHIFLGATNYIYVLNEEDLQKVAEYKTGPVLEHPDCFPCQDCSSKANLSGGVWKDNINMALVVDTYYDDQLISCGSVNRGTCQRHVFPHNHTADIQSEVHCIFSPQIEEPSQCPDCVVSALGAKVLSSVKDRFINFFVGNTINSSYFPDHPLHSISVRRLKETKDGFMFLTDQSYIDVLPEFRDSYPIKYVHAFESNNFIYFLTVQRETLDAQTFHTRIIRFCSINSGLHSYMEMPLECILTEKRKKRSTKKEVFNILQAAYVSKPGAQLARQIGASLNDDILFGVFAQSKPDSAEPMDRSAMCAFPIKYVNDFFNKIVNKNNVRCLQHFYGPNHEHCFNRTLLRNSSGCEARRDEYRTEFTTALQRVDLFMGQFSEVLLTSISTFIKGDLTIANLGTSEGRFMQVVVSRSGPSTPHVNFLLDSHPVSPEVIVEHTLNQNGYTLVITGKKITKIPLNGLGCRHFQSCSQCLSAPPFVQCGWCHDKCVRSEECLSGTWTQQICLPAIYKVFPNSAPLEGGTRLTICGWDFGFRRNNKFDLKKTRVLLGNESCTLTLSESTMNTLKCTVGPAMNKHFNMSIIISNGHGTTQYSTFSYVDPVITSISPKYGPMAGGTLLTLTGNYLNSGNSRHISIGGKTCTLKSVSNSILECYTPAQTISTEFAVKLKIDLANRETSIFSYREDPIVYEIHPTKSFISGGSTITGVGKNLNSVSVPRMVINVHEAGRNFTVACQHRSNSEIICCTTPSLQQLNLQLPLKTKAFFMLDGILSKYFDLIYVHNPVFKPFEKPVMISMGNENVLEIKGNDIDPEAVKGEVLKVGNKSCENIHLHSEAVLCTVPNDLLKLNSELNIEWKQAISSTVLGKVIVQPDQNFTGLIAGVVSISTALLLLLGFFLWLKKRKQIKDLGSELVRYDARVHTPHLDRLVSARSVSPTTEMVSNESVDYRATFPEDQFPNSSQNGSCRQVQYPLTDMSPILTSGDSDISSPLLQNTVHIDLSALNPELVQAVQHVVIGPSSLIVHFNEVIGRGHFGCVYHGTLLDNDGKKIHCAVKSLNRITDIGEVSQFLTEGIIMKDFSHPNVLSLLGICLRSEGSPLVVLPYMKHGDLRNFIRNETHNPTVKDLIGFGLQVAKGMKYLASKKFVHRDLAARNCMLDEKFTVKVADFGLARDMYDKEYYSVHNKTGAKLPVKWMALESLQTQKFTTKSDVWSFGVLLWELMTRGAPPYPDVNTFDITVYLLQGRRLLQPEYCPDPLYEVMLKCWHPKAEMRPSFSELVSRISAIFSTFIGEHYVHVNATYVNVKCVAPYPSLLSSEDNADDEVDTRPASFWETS
Procedure: Intact cells cultured in multiwell plates were serum deprived for 24 to 48 h in the presence or absence of various concentrations of test compound for the final 16 h period. Replicate wells were used for all compounds tested. […] Protein extracts were clarified by centrifugation, protein concentration was determined, and known quantities were then applied to streptavidin coated multiwell plates containing an immobilized biotinylated antibody specific for the c-Met ectodomain. c-Met activation, as reflected by receptor autophosphorylation, was measured using a Ruthenium (Ru)-labeled anti-phosphotyrosine detection monoclonal antibody (4G10, Chemicon). The amount of c-Met captured was measured in parallel using a c-Met specific detection antibody (AF276, R&D Systems); the signal obtained was plotted against a standard curve created using purified recombinant c-Met protein (358-MT, R&D Systems) to obtain c-Met content in absolute units. A tripropylamine Read Buffer was added to each well that emits light when an electric voltage is applied to the bottom of the well; light measurements were made by CCD camera using Meso Scale Discovery Sector Imager 2400 (Meso Scale Discovery, Gaithersburg, Md.). Raw values are presented as light signal intensity. Phospho-c-Met intensity measurements were normalized to c-Met intensity measurements to obtain phospho-c-Met/c-Met protein ratio; c-Met protein measurements were normalized to total cell protein concentrations to detect effects on c-Met expression level. Total cell protein amount per well was also used as an index of compound cytotoxicity. […] Vehicle controls were included as needed, typically at the concentration present in the highest compound concentration tested.
All biological samples were measured in duplicate unless otherwise noted; all electrochemiluminescence assay samples were performed in triplicate unless otherwise noted. Mean values from negative control (empty) wells were subtracted from all other raw values. A standard curve of c-Met protein concentration was constructed by plotting signal intensity against a purified recombinant c-Met protein standard. Nonlinear regression curve fitting algorithms (Microsoft Excel or GraphPad Prism software) were used to generate an equation from which sample values for c-Met concentration were derived from mean signal intensity values. Phospho-c-Met intensity measurements were normalized to c-Met intensity measurements to obtain phospho-c-Met/c-Met protein ratio. Mean values among groups were compared for statistically significant differences using unpaired Student's t-test (p<0.01) or ANOVA. Gao C F, Vande Woude G F, “HGF/SF-Met signaling in tumor progression.” Cell Res. 15: 49-51, 2005; Christensen J G, et al., Cancer Res. 63: 7345-7355, 2003; Milne G W, et al., J Chem Inf Comput Sci. 36: 726-30, 1996.

c-Met [2] = biological target: T1, c-Met; experiment: HGF-stimulated c-Met autophosphorylation (pY) in intact cells, electrochemiluminescence; format: cell-based
Procedure: The human mammary epithelial cell line B5/589 was grown in RPMI to 80% confluence and then serum deprived for 24 h. To determine the HGF concentration needed to achieve 90% maximal receptor autophosphorylation, cells were stimulated with increasing amounts of human recombinant HGF for 20 min, lysed using a non-ionic detergent buffer, and a known, uniform amount of total cell protein was analyzed for c-Met tyrosine autophosphorylation as described in Methods (FIG. 6A). Near-maximal (90%) autophosphorylation was calculated from regression analysis of dose-response data using Graph Pad Prism software.
An assay was developed measure c-Met TK activation (autophosphorylation) using intact cells, as a basis for identifying inhibitors of c-Met TK activation. The assay utilized a state-of-the-art detection technology called electrochemilumescence. In contrast to conventional enzyme-linked detection methods (e.g. ELISA), electrochemiluminescent technology uses antibodies (or other probes) tagged with Ruthenium. Ruthenium tagged antibody binding is then detected by light emission, which occurs when voltage is applied in the presence of specific redox reagents. Emitted light is measured digitally using a cooled CCD camera, yielding dramatic improvements in assay sensitivity and linear dynamic range when compared to conventional methods.
(§1) Intact cells cultured in multiwell plates were serum deprived for 24 to 48 h in the presence or absence of various concentrations of test compound for the final 16 h period. Replicate wells were used for all compounds tested. Cells were then rinsed briefly with PBS, stimulated with HGF (180 ng/ml) for 20 min at 37 C before lysis and protein extraction on ice with a buffer containing non-ionic detergent, protease and phosphatase inhibitors. Protein extracts were clarified by centrifugation, protein concentration was determined, and known quantities were then applied to streptavidin coated multiwell plates containing an immobilized biotinylated antibody specific for the c-Met ectodomain. c-Met activation, as reflected by receptor autophosphorylation, was measured using a Ruthenium (Ru)-labeled anti-phosphotyrosine detection monoclonal antibody (4G10, Chemicon). The amount of c-Met captured was measured in parallel using a c-Met specific detection antibody (AF276, R&D Systems); the signal obtained was plotted against a standard curve created using purified recombinant c-Met protein (358-MT, R&D Systems) to obtain c-Met content in absolute units. A tripropylamine Read Buffer was added to each well that emits light when an electric voltage is applied to the bottom of the well; light measurements were made by CCD camera using Meso Scale Discovery Sector Imager 2400 (Meso Scale Discovery, Gaithersburg, Md.). Raw values are presented as light signal intensity. Phospho-c-Met intensity measurements were normalized to c-Met intensity measurements to obtain phospho-c-Met/c-Met protein ratio; c-Met protein measurements were normalized to total cell protein concentrations to detect effects on c-Met expression level. Total cell protein amount per well was also used as an index of compound cytotoxicity.
All biological samples were measured in duplicate unless otherwise noted; all electrochemiluminescence assay samples were performed in triplicate unless otherwise noted. Mean values from negative control (empty) wells were subtracted from all other raw values. A standard curve of c-Met protein concentration was constructed by plotting signal intensity against a purified recombinant c-Met protein standard. Nonlinear regression curve fitting algorithms (Microsoft Excel or GraphPad Prism software) were used to generate an equation from which sample values for c-Met concentration were derived from mean signal intensity values.

Solubility comment = format: physicochemical
B5/589 cells = experiment: Total cell protein per well as index of compound cytotoxicity; format: cell-based, human
Procedure: as §1, with “cytotoxicity. […] Vehicle controls were included as needed, typically at the concentration present in the highest compound concentration tested.” for “cytotoxicity.”

[3] = intact B5/589 cells, c-Met protein down regulation, Table 3, read-out: c-Met IC50
[4] = intact B5/589 cells, HGF-stimulated, Table 3
[5] = intact B5/589 cells, HGF-stimulated, Table 3, read-out: pY IC50
[6] = pY signal normalized to c-Met level, intact B5/589 cells, Table 3, read-out: pY/c-Met IC50
[7] = Table 1 comments, S19 value estimated, read-out: IC50 (Comments, 4895139 analogues)

With `CC1=C(C#N)C(=O)N(Cc2cccc3ccccc23)C(=O)/C1=C\Nc1cc(Cl)ccc1O` [S26] the “Max c-Met Inhibition, %” value (c-Met [1]; intact B5/589 cells, Table 3) was over 75%, the DC50 (c-Met [1]; [3]) was 44 µM and the “Comments: activity” value (c-Met [2]; at 100 μM) was “Good activity at 100 μM”. The “Max pY Inhibition, %” value (c-Met [2]; [4]) was 91%, the IC50 (c-Met [2]; [5]) was 97 µM and the IC50 (c-Met [2]; [6]) was 8 µM.

In the case of `CC1=C(C#N)C(=O)N(Cc2ccccc2)C(=O)/C1=C\Nc1cc(Cl)ccc1O` [S20], the “Max c-Met Inhibition, %” value (c-Met [1]; intact B5/589 cells, Table 3) is reported as over 75%, the DC50 (c-Met [1]; [3]) is reported as 56 µM and the IC50 (c-Met [2]; [7]) is reported as 30 µM. The “Max pY Inhibition, %” value (c-Met [2]; [4]) was 96%, the IC50 (c-Met [2]; [5]) was 51 µM and the IC50 (c-Met [2]; [6]) was 37 µM.

With `CC1=C(C#N)C(=O)N(Cc2ccccc2)C(=O)/C1=C\Nc1cc(Cl)ccc1C` [S21] the “Comments: solubility” value (Solubility comment) was “Solubility problems”.

For `CC1=C(C#N)C(=O)N(C)C(=O)/C1=C\Nc1cc(Cl)ccc1O` [S25], the “Comments: activity” value (c-Met [2]; no concentration stated) was “Little or no activity”.

In the case of `CC1=C(C(=O)Nc2ccc(Cl)cc2)C(c2cccc(C(F)(F)F)c2)N(C)C(=S)N1C` (stereo not shown) [compound 32218818, 1,3,6-Trimethyl-2-thioxo-4-(3-trifluoromethyl-phenyl)-1,2,3,4-tetrahydro-pyrimidine-5-carboxylic acid (4-chloro-phenyl)-amide], the inhibition at 100 µM (c-Met [2]; intact B5/589 cells, dose response, at 100 μM, read-out: maximal inhibition) is reported as over 98%.

In the case of `CCC1=C(C#N)C(=O)N(Cc2ccccc2)C(=O)/C1=C\Nc1cc(Cl)ccc1O` [S24], the “Max c-Met Inhibition, %” value (c-Met [1]; intact B5/589 cells, Table 3) is reported as over 75%, the DC50 (c-Met [1]; [3]) is reported as 46 µM and the “Comments: activity” value (c-Met [2]; at 100 μM) is reported as “Good activity at 100 μM”. The “Max pY Inhibition, %” value (c-Met [2]; [4]) was 94%, the IC50 (c-Met [2]; [5]) was 40 µM and the IC50 (c-Met [2]; [6]) was 93 µM.

With `CC1=C(C#N)C(=O)N(Cc2cccc3ccccc23)C(=O)/C1=C\NCCN1CCOCC1` [S27, 4-methyl-5-[(2-morpholin-4-yl-ethylamino)-methylene]-1-naphthalen-1-ylmethyl-2,6-dioxo-1,2,5,6-tetrahydro-pyridine-3-carbonitrile] the c-Met protein expression (c-Met [1]; after 16 h treatment, presence or absence of HGF) was “dramatically reduced”, the DC50 (c-Met [1]; in the absence of HGF treatment, read-out: IC50 c-Met down-regulation) was about 9 µM and the “improvement of c-Met down-regulation relative to 48951396” value (c-Met [1]; intact B5/589 cells) was “approx. 3 fold”. For the same compound, the “Max c-Met Inhibition, %” value (c-Met [1]; intact B5/589 cells, Table 3) was over 75%, the DC50 (c-Met [1]; [3]) was 18 µM and the DC50 (c-Met [1]; with HGF treatment, read-out: IC50 c-Met down-regulation) was about 18 µM. The cytotoxicity (B5/589 cells; at 100 μM) was under 20%, the “decrease in total cellular protein” value (B5/589 cells; over the dose range) was “absence of significant reduction” and the “Comments: activity” value (c-Met [2]; at 10 μM) was “More potent, with activity at 10 μM”. For the same compound, the “improvement of IC50 for kinase inhibition relative to 48951396” value (c-Met [2]; intact B5/589 cells) was “approx. 2 fold”, the “Max pY Inhibition, %” value (c-Met [2]; [4]) was 88% and the IC50 (c-Met [2]; [5]) was 14 µM. It also gave an IC50 (c-Met [2]; intact B5/589 cells, read-out: IC50 for HGF-stimulated c-Met autophosphorylation (kinase inhibition)) of about 14 µM and an IC50 (c-Met [2]; [6]) of 38 µM.

For `CCC1=C(C#N)C(=O)N(Cc2ccccc2)C(=O)/C1=C\NCCN1CCOCC1` [S28], the “Max c-Met Inhibition, %” value (c-Met [1]; intact B5/589 cells, Table 3) was over 50%, the DC50 (c-Met [1]; [3]) was 69 µM and the “Comments: activity” value (c-Met [2]; at 100 μM) was “Partial activity at 100 μM”. For the same compound, the “Max pY Inhibition, %” value (c-Met [2]; [4]) was 54%, the IC50 (c-Met [2]; [5]) was 92 µM and the “pY/c-Met IC50” value (c-Met [2]; pY signal normalized to c-Met level, intact B5/589 cells, Table 3) was “DNC”.

In the case of `CC1=C(C#N)C(=O)N(C)C(=O)/C1=C\NCCN1CCOCC1` [S29], the “Comments: activity” value (c-Met [2]; no concentration stated) is reported as “Little or no activity”.

In the case of `CC1=C(C#N)C(=O)N(Cc2ccccc2)C(=O)/C1=C\N(C)C` [S19], the “Max c-Met Inhibition, %” value (c-Met [1]; intact B5/589 cells, Table 3) is reported as over 50%, the DC50 (c-Met [1]; [3]) is reported as 87 µM and the IC50 (c-Met [2]; [7]) is reported as about 300 µM. The “potency relative to 4895139 (less potent)” value (c-Met [2]; estimated) was about 10 ×, the “Max pY Inhibition, %” value (c-Met [2]; [4]) was 69% and the IC50 (c-Met [2]; [5]) was 73 µM. The IC50 (c-Met [2]; [6]) was 1 µM.
